The test has as its target V-type proton ATPase (Gallus gallus). As to the kind of experiment: Compound was measured for the inhibition of bafilomycin-sensitive ATPase activity in partially purified membrane preparation from chicken osteoclast (cOC).
Broadly, the IC50 is the concentration at which inhibition is half-maximal. In turn, `CO/C(=C\C=C\c1cc2cc(Cl)c(Cl)cc2[nH]1)C(=O)NC1CC(C)(C)N(C)C(C)(C)C1` [(2Z,4E)-5-(5,6-Dichloro-1H-indol-2-yl)-2-methoxy-penta-2,4-dienoic acid (1,2,2,6,6-pentamethyl-piperidin-4-yl)-amide] registered an IC50 of 27 nM. `CO/C(=C/C=C/c1cc2cc(Cl)c(Cl)cc2[nH]1)C(=O)NC1CC(C)(C)N(C)C(C)(C)C1` [TCMDC-139097] displayed a half-maximal inhibitory concentration (IC50) of 2360 nM.

Molecule `CO/C(=C\C=C/c1cc2cc(Cl)c(Cl)cc2[nH]1)C(=O)NC1CC(C)(C)N(C)C(C)(C)C1` [TCMDC-139106] returned an IC50 of 663 nM.

The values above are taken from BindingDB's records for doi:10.1016/s0960-894x(98)00660-x (Smithkline Beecham Research Unit, 1999).
